Ends that are not written are not given here.
Experiments:
[1] = system: myeloid leukemia; conditions: cited from earlier work
Source text: In CML, the influence of WT1 stems from its robust transcriptional control of genes associated with cell growth, metabolism, differentiation, and apoptosis. Interventions targeting WT1 can induce cell cycle arrest and apoptosis. […] Similarly, WT1-specific RNA interference led to an increase in G0/G1-phase cells and a decrease in S-phase cells. In this study, the WIP2W peptide halted the cell cycle in ...

[2] = system: WT1+ BP-CML xenograft (K562) mice; test: Splenic infiltration (Ki67 staining of spleen); type: in vivo, BALB/c nude mice; conditions: after 14 days daily treatment, n = 3
[3] = system: K562 cells; test: Cell cycle analysis (PI, flow cytometry); type: cell-based, human; conditions: K562, 10 μM, 24 h
Procedure: K562 cells were incubated in the absence and presence of WIP2W (10 μM) for 24 h. Subsequently, these cells were collected and fixed with 75% cold ethanol overnight, followed by treatment with propidium iodide (PI) and RNase A. Then, the cell fluorescence was examined using flow cytometry, and the cell cycle profiles were analyzed using FlowJo 10.

[4] = system: K562 cells; test: Intracellular localization by confocal laser scanning microscopy; type: cell-based, human; conditions: FITC-WIP2W 10 μM, K562, 37 °C, 3.5 h, Hoechst33342
Procedure: The precise localization of WIP2W was identified using the same microscope. K562 cells, after being exposed to FITC-WIP2W (10 μM) at 37 °C for 3.5 h, were gathered and stained with Hoechst33342. They were then moved to confocal dishes, where fluorescence data were captured.

[5] = system: WT1+ BP-CML xenograft (K562) mice; conditions: single subcutaneous injection, 30 mg/kg WIP2W (FITC-labelled), 4 h, IVIS of heart, liver, spleen, lung, kidney
Procedure: In this study, a WT1^+ BP-CML xenograft mouse model was developed. K562 cells (1 × 10^7/animal) were injected subcutaneously into the flanks of 5-week-old female BALB/c nude mice to generate primary BP-CML tumors. Once the tumors became noticeable, the mice were euthanized, and tumor cells were harvested. These cells were then reintroduced subcutaneously into a new set of hosts (1 × 10^7/animal) for further therapeutic investigations. […] Four hours post-administration, the mice were euthanized. Their tumors and primary organs were then extracted and assessed for fluorescence using IVIS (in vivo imaging system) equipment from PerkinElmer, USA.

[6] = molecular target: T1, WT1 protein (Homo sapiens, UniProt P19544); test: WT1 immunohistochemistry of excised tumors; type: in vivo, BALB/c nude mice; design: The excised tumors underwent immunohistochemical analysis using an anti-WT1 antibody; from tissue; host or cells: excised K562 xenograft tumours from BALB/c nude mice; conditions: anti-WT1 IHC, after 14 days daily s.c. treatment, WIP2W 30 mg/kg
T1 sequence (P19544 whole entry): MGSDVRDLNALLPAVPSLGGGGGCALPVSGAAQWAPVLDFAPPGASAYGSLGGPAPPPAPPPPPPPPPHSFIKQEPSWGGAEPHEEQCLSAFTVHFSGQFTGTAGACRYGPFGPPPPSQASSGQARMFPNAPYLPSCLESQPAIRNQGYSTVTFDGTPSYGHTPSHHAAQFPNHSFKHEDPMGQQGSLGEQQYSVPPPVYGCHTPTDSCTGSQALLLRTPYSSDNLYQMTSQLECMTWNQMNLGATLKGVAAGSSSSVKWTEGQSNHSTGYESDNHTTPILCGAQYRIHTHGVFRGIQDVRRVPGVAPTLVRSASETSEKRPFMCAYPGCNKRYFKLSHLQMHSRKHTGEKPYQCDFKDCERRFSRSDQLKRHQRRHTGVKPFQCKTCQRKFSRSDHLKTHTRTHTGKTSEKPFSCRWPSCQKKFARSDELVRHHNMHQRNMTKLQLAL
Source text: […]. […] […].

[7] = molecular target: T1, WT1 protein; test: Pull-down assay with biotin-WIP2W on streptavidin magnetic beads, anti-WT1 immunoblot; type: binding; design: incubated with protein lysates, including the nuclear and cytoplasmic proteins from K562 cells; endogenous in cells; host or cells: K562 cells; conditions: nuclear and cytoplasmic protein lysates of K562 cells, 2 h at 25 °C, anti-WT1 Western blot
Procedure: Proteins from different localizations were harnessed for peptide–protein interaction studies. […] The bound WIP2W beads were magnetically separated, discarding the unattached WIP2W molecules in the leftover solution. The combined protein extracts from the whole cell, nucleus, and cytoplasm were then exposed to the WIP2W beads for another 2 h at 25 °C. Finally, the bead eluates were probed using an anti-WT1 antibody.

[8] = system: L02 cells; test: Cytotoxicity assay (CCK-8); conditions: L02, up to 40 μM, 24 h
Procedure: (§1) K562 (1.5 × 10^4/well) and L02 (8 × 10^3/well) cells were seeded in 96-well plates and incubated with gradient concentrations of peptides or micelles in complete mediums. After 24 or 48 h of incubation, each well was spiked with CCK-8 agent (10 μL) for another 2 h. Absorption was detected by a spectrophotometer at 450 nm (Molecular Devices, San Jose, CA, USA), and IC50 values were calculated by curve fitting.

[9] = system: WT1+ BP-CML xenograft (K562) mice; test: In vivo antitumor efficiency; design: species or system BALB/c nude mice; conditions: tumors excised after 14 days daily s.c. treatment, WIP2W 30 mg/kg
Procedure: These tumor-bearing mice were then randomly assigned to one of four groups (n = 5 per group). […] The subcutaneous tumor volume (mm^3) and body weight (g) were recorded three times per week, and the tumor volume can be computed according to the following equation:Tumor volume (mm^3) = L × W × W/2(2) where “L” and “W” denote the maximum and minimum dimensions, respectively. On day 19, the mice were slaughtered, and the retrieved major organs and tumors were stained with hematoxylin and eosin (H&E), WT1, and Ki67, respectively.

[10] = system: K562 cells; test: Cellular uptake by flow cytometry; type: cell-based, human; conditions: FITC-WIP2W 0.05, 0.5 and 5 μM, K562, 37 °C, 2 h, n = 3
Procedure: The percentage of positive cells and their mean fluorescence intensity were then analyzed using a flow cytometer, with each condition tested in triplicate (n = 3).

[11] = Encapsulation efficiency of PEG-PE micelles by ultrafiltration; type: physicochemical; conditions: n = 3
Procedure: The ability of PEG-PE micelles to encapsulate WIP2W was assessed using an ultrafiltration method. Solutions of FITC-WIP2W-loaded micelles (with PEG-PE concentrations of 5, 10, 30, 50, 100, and 200 μM, and FITC-WIP2W at 10 μM) were placed into an ultra-centrifugal filter (MWCO 100,000, Millipore, Burlington, MA, USA). They were then centrifuged at 12,000× g for 30 min. The fluorescence intensity of the filtrate was subsequently measured spectrophotometrically. A concentration-to-fluorescence intensity relationship was then derived to determine the amount of unencapsulated FITC-WIP2W in the filtrate. From this, the encapsulation efficiency (EE%) of PEG-PE micelles for WIP2W can be calculated, as shown below. EE% = incorporated WIP2W/initial WIP2W added × 100%(1)

[12] = Biological safety in vivo (body weight, H&E of major organs)
[13] = system: K562 cells
Procedure: as §1

Compound: COc1cc(/C=C/C(=O)CC(=O)/C=C/c2ccc(O)c(OC)c2)ccc1O [curcumin]
- Effect on cell cycle progression [1]: induce cell death and G2/M phase arrest

Compound: Cc1ccc(NC(=O)c2ccc(CN3CCN(C)CC3)cc2)cc1Nc1nccc(-c2cccnc2)n1 [imatinib, reference compound]
- Ki67 staining of spleen (splenic infiltration of CML cells) [2]: pronounced fluorescence in the spleen

Compound: WWGGDQRRSWGRRRPDRRYGRKKRRQRRR [WIP2W]
- G2/M phase compartment of cell cycle distribution ([3]; n = 3 (control 22.4%)): 14.1%
- G0/G1 phase compartment of cell cycle distribution ([3]; n = 3 (control 24.1%)): 32.4%
- Intracellular localization [4]: majority of the green fluorescence was pinpointed in K562 cells’ nuclei
- Distribution in major organs [5]: predominantly distributed in the liver and kidneys
- WT1 protein levels in tumor tissues relative to controls [6]: significantly diminished
- Binding of WIP2W to WT1 protein (pull-down) [7]: specifically bind to the WT1 protein in both the nucleus and cytoplasm
- Cytotoxicity in normal hepatic cell line L02 [8]: no apparent cytotoxicity
- Ki67 staining of spleen (splenic infiltration of CML cells) [2]: negligible signs of metastatic CML cells in the spleen
- H&E staining of tumor tissues [9]: pronounced cell death
- Cellular uptake [10]: concentration dependency
- Encapsulation efficiency (EE%) ([11]; molar ratio PEG-PE:WIP2W 3:1, FITC-WIP2W 10 μM in PBS, ultrafiltration MWCO 100,000, fluorescence): approximately 72%
- Encapsulation efficiency (EE%) ([11]; molar ratio PEG-PE:WIP2W surpassed 10, FITC-WIP2W 10 μM in PBS, ultrafiltration, fluorescence): exceeded 95%
- Body weight ([12]; 14 days daily treatment, compared to control and imatinib groups): no significant weight loss
- H&E staining of major organs (systemic toxicity) ([12]; after 14 days daily treatment, imatinib 50 mg/kg i.p., WIP2W 30 mg/kg s.c.): minimal systemic toxicity
- Cell viability ([13]; K562, 20 μM, 24 h, CCK-8, PBS control = 100%): < 10%
- IC50 ([13]; read-out: IC50 (concentration that inhibited 50% K562 cell proliferation), K562, 24 h, CCK-8, n = 6): 9.7 µM

Source: publication PMC10534672, “A Nucleus-Targeting WT1 Antagonistic Peptide Encapsulated in Polymeric Nanomicelles Combats Refractory Chronic Myeloid Leukemia” (Pharmaceutics, 2023)
